Experimental data published in US9382197B2, “Substituted hydroxamic acids and uses thereof” (Millennium Pharmaceuticals, Inc., priority 2010, dated 2016).

Target: T1, purified human HDAC6 (Homo sapiens, UniProt Q9UBN7)
T1 construct: purchased BPS Bioscience 5006
T1 sequence (Q9UBN7 1-1215): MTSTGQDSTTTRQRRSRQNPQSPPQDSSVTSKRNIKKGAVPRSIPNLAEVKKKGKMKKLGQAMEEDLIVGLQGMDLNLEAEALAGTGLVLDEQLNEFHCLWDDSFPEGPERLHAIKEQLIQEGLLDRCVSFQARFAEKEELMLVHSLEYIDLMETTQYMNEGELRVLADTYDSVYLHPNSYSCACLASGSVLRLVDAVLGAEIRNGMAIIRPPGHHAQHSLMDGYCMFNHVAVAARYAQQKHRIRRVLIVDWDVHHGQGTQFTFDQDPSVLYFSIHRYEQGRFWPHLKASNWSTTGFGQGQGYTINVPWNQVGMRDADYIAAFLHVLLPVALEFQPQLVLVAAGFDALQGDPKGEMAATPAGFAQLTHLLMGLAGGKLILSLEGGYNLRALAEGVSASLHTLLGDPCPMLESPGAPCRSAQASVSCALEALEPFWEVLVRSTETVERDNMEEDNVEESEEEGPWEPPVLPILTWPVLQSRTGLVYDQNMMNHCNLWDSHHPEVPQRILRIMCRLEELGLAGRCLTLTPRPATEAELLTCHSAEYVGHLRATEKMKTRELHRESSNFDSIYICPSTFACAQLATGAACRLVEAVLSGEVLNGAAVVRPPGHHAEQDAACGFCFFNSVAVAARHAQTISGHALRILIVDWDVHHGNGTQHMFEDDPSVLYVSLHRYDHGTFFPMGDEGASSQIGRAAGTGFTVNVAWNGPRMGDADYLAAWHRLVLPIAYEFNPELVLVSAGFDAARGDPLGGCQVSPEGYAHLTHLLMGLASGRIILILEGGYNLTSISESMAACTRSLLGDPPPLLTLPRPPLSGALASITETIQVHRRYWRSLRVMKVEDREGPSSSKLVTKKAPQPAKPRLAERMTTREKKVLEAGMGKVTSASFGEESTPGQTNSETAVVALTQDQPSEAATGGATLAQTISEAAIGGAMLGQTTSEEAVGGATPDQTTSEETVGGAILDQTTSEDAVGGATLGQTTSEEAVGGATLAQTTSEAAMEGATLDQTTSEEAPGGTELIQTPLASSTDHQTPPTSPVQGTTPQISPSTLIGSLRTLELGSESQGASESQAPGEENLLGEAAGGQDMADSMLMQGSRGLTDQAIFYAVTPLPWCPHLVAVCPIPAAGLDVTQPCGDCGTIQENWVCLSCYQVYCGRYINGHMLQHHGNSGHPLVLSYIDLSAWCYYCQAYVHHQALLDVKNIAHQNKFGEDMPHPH
Assay: HDAC6 Enzyme Assay
Type: biochemical
In short: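 Deacetylated product quantified after trypsin digestion as released AMC (340/460 nm), following a 1 h, 30 °C reaction of human HDAC6 with Ac-RGK(Ac)-AMC peptide, quenched by trichostatin A. IC50 derived from DMSO-normalized curves.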

[1] = purified human HDAC6, substrate Ac-Arg-Gly-Lys(Ac)-AMC, 1 hour at 30° C., reported as bins
[2] = bin: greater than 500 nM and less than 1 μM (lower bound in nM, upper bound in μM)

Cc1c(C(=O)N[C@H](C)c2ccc(C(=O)NO)cc2)oc2ccccc12 [Compound I-237, N-((1R)-1-{4-[(hydroxyamino)carbonyl]phenyl}ethyl)-3-methyl-1-benzofuran-2-carboxamide]
IC50 [1]: < 100 nM

CC(C)[C@@H](NC(=O)C12CC3CC(CC(C3)C1)C2)c1ccc(C(=O)NO)cc1 [Compound I-328, N-((1R)-1-{4-[(hydroxyamino)carbonyl]phenyl}-2-methylpropyl)adamantane-1-carboxamide]
IC50 [1]: < 100 nM

Cc1ccc(C2(C(=O)NC(C)c3ccc(C(=O)NO)cc3)CC2)cc1 (stereo not shown) [Compound I-264, N-hydroxy-4-[1-({[1-(4-methylphenyl)cyclopropyl]carbonyl}amino)ethyl]benzamide]
IC50 [1]: < 100 nM

Cc1noc(C)c1C(=O)NC(c1ccc(C(=O)NO)cc1)C(C)C (stereo not shown) [Compound I-238, N-(1-{4-[(hydroxyamino)carbonyl]phenyl}-2-methylpropyl)-3,5-dimethylisoxazole-4-carboxamide]
IC50 (bin: greater than 1 μM): > 1000 nM

Cn1c(C(=O)NC(c2ccc(C(=O)NO)cc2)C(C)(C)C)cc2ccccc21 (stereo not shown) [Compound I-364, N-(1-{4-[(hydroxyamino)carbonyl]phenyl}-2,2-dimethylpropyl)-1-methyl-1H-indole-2-carboxamide]
IC50 [1]: 100 to 500 nM

CC(NC(=O)c1c2c(nn1C)CCCC2)c1cccc(C(=O)NO)c1 (stereo not shown) [Compound I-101, N-(1-{3-[(hydroxyamino)carbonyl]phenyl}ethyl)-2-methyl-4,5,6,7-tetrahydro-2H-indazole-3-carboxamide]
IC50 [2]: 500 to 1000 nM

CC(NC(=O)Cc1ccccc1Cl)c1ccc(C(=O)NO)cc1 (stereo not shown) [Compound I-292, 4-(1-{[(2-chlorophenyl)acetyl]amino}ethyl)-N-hydroxybenzamide]
IC50 (bin: greater than 1 μM): > 1000 nM

COc1ccc(C(=O)N[C@@H](c2ccc(C(=O)NO)cc2)C(C)C)cc1 [Compound I-19, N-((1R)-1-{4-[(hydroxyamino)carbonyl]phenyl}-2-methylpropyl)-4-methoxybenzamide]
IC50 [1]: < 100 nM

CC(NS(=O)(=O)c1cccc2cccnc12)c1ccc(C(=O)NO)cc1 (stereo not shown) [Compound I-363, N-hydroxy-4-{1-[(quinolin-8-ylsulfonyl)amino]ethyl}benzamide]
IC50 [1]: 100 to 500 nM

CC(C)(C)C(NC(=O)C1(c2ccc(Cl)cc2)CC1)c1ccc(C(=O)NO)cc1 (stereo not shown) [Compound I-41, 4-[1-({[1-(4-chlorophenyl)cyclopropyl]carbonyl}amino)-2,2-dimethylpropyl]-N-hydroxybenzamide]
IC50 [2]: 500 to 1000 nM

CC(NC(=O)c1c[nH]c2ccccc12)c1cccc(C(=O)NO)c1 (stereo not shown) [Compound I-10, N-(1-{3-[(hydroxyamino)carbonyl]phenyl}ethyl)-1H-indole-3-carboxamide]
IC50 [1]: 100 to 500 nM

CC(NC(=O)c1cc2ccccc2o1)c1ccc(C(=O)NO)cc1 (stereo not shown) [Compound I-207, N-(1-{4-[(hydroxyamino)carbonyl]phenyl}ethyl)-1-benzofuran-2-carboxamide]
IC50 [1]: < 100 nM

CC(NS(=O)(=O)Cc1ccccc1)c1ccc(C(=O)NO)cc1 (stereo not shown) [Compound I-338, 4-{1-[(benzylsulfonyl)amino]ethyl}-N-hydroxybenzamide]
IC50 [1]: 100 to 500 nM

Cc1cc(C)c(C(=O)NC(c2ccc(C(=O)NO)cc2)C(C)(C)C)[nH]1 (stereo not shown) [Compound I-262, N-(1-{4-[(hydroxyamino)carbonyl]phenyl}-2,2-dimethylpropyl)-3,5-dimethyl-1H-pyrrole-2-carboxamide]
IC50 [1]: 100 to 500 nM

CC(NC(=O)c1cccn1C)c1ccc(C(=O)NO)cc1 (stereo not shown) [Compound I-356, N-(1-{4-[(hydroxyamino)carbonyl]phenyl}ethyl)-1-methyl-1H-pyrrole-2-carboxamide]
IC50 [1]: < 100 nM

CC(C)(C)c1ccc(C(=O)NC(c2ccc(C(=O)NO)cc2)C(C)(C)C)cc1 (stereo not shown) [Compound I-377, 4-tert-butyl-N-(1-{4-[(hydroxyamino)carbonyl]phenyl}-2,2-dimethylpropyl)benzamide]
IC50 [1]: 100 to 500 nM

CC(NC(=O)CC1CC1)c1ccc(C(=O)NO)cc1 (stereo not shown) [Compound I-379, 4-{1-[(cyclopropylacetyl)amino]ethyl}-N-hydroxybenzamide]
IC50 (bin: greater than 1 μM): > 1000 nM

CC(NC(=O)c1cc2ccccc2[nH]1)c1cccc(C(=O)NO)c1 (stereo not shown) [Compound I-227, N-(1-{3-[(hydroxyamino)carbonyl]phenyl}ethyl)-1H-indole-2-carboxamide]
IC50 [1]: 100 to 500 nM

CCC[C@@H](NC(=O)c1sc2ccccc2c1C)c1ccc(C(=O)NO)cc1 [Compound I-62, N-((1R)-1-{4-[(hydroxyamino)carbonyl]phenyl}butyl)-3-methyl-1-benzothiophene-2-carboxamide]
IC50 [1]: < 100 nM

Cc1cc(C(=O)NC(C)c2cccc(C(=O)NO)c2)c(C)[nH]1 (stereo not shown) [Compound I-181, N-(1-{3-[(hydroxyamino)carbonyl]phenyl}ethyl)-2,5-dimethyl-1H-pyrrole-3-carboxamide]
IC50 [2]: 500 to 1000 nM

CC(C)C(NC(=O)c1cc(C(C)(C)C)nn1Cc1ccccc1)c1ccc(C(=O)NO)cc1 (stereo not shown) [Compound I-77, 1-benzyl-3-tert-butyl-N-(1-{4-[(hydroxyamino)carbonyl]phenyl}-2-methylpropyl)-1H-pyrazole-5-carboxamide]
IC50 [1]: 100 to 500 nM

CC(C)C(=O)NC(C)c1ccc(C(=O)NO)cc1 (stereo not shown) [Compound I-36, N-hydroxy-4-[1-(isobutyrylamino)ethyl]benzamide]
IC50 (bin: greater than 1 μM): > 1000 nM

Cc1[nH]c2ccccc2c1CC(=O)NC(c1ccc(C(=O)NO)cc1)C(C)C (stereo not shown) [Compound I-174, N-hydroxy-4-(2-methyl-1-{[(2-methyl-1H-indol-3-yl)acetyl]amino}propyl)benzamide]
IC50 [1]: 100 to 500 nM

CC(NC(=O)C1(c2ccc(Cl)cc2)CCC1)c1ccc(C(=O)NO)cc1 (stereo not shown) [Compound I-110, 4-[1-({[1-(4-chlorophenyl)cyclobutyl]carbonyl}amino)ethyl]-N-hydroxybenzamide]
IC50 [1]: < 100 nM

C[C@@H](NC(=O)C12CC3CC(CC(C3)C1)C2)c1ccc(C(=O)NO)cc1 [Compound I-209, N-((1R)-1-{4-[(hydroxyamino)carbonyl]phenyl}ethyl)adamantane-1-carboxamide]
IC50 [1]: < 100 nM

Cc1cccc(C(=O)NC(C)c2ccc(C(=O)NO)cc2)c1 (stereo not shown) [Compound I-295, N-(1-{4-[(hydroxyamino)carbonyl]phenyl}ethyl)-3-methylbenzamide]
IC50 [1]: < 100 nM

C[C@@H](NS(=O)(=O)c1ccc(C(F)(F)F)cc1)c1ccc(C(=O)NO)cc1 [Compound I-351, N-hydroxy-4-[(1R)-1-({[4-(trifluoromethyl)phenyl]sulfonyl}amino)ethyl]benzamide]
IC50 [2]: 500 to 1000 nM

Cc1ccc(F)c(C(=O)NC(C)c2ccc(C(=O)NO)cc2)c1 (stereo not shown) [Compound I-8, 2-fluoro-N-(1-{4-[(hydroxyamino)carbonyl]phenyl}ethyl)-5-methylbenzamide]
IC50 [1]: < 100 nM

Cc1oc(-c2ccccc2)nc1CC(=O)NC(C)c1cccc(C(=O)NO)c1 (stereo not shown) [Compound I-234, N-hydroxy-3-(1-{[(5-methyl-2-phenyl-1,3-oxazol-4-yl)acetyl]amino}ethyl)benzamide]
IC50 (bin: greater than 1 μM): > 1000 nM

O=C(NO)c1ccc([C@@H](NC(=O)c2cc3ccccc3s2)C2CC2)cc1 [Compound I-249, N-((S)-cyclopropyl{4-[(hydroxyamino)carbonyl]phenyl}methyl)-1-benzothiophene-2-carboxamide]
IC50 [1]: 100 to 500 nM

Cc1cc(C(=O)NC(C)c2cccc(C(=O)NO)c2)nn1C (stereo not shown) [Compound I-84, N-(1-{3-[(hydroxyamino)carbonyl]phenyl}ethyl)-1,5-dimethyl-1H-pyrazole-3-carboxamide]
IC50 [1]: 100 to 500 nM
